{
  "source": "paper PMC4492822",
  "about": "(EMBO Molecular Medicine, 2015)",
  "key": {"H1299 cells": {"test_system": "H1299 cells", "assay": "Immunoblotting of cell cycle, apoptosis, MAPK and DNA repair proteins", "type": "cell-based", "method": "(§1) Cell lysate was prepared with TB buffer method. For immunoblotting, ~25 μg protein was loaded on 10% SDS–PAGE gels. […] The blots were developed with clarity Western ECL (Bio-Rad, Hercules, CA, USA) and imaged with G:BOX Chemi XR5 (Syngene, Frederick, MD, USA)."}, "A549 cells [1]": {"test_system": "A549 cells", "assay": "Immunoblotting of cell cycle, apoptosis, MAPK and DNA repair proteins", "type": "cell-based, human", "method": "as §1"}, "[2]": {"set-up": "species or system SCID mice", "settings": "mouse, in vivo", "method": "Figure 5 Toxicity studies of RK-33 in mice • Following injection of 20 mg/kg of RK-33, twice a week for 7 weeks, extensive histopathological examination was carried out following necropsy. Identical patterns were observed both in the control and in the treated mice (n = 2). Samples were stained with H&E. Scale bar is 50 μm. • Pharmacokinetics of RK-33 in SCID mice at various time intervals. Results are mean ± SD from 5 mice. LC-MS/MS method was used to determine concentration of RK-33 in mouse plasma and tissue. • Liquid chromatography–mass spectrometry (LC-MS/MS) analysis was performed to determine different metabolites of RK-33. • RK-33 and metabolites characterized by LC-MS/MS in human liver microsomes using the scan mode function of the LC-MS/MS. • HAPI cells were treated with RK-33 (10 μM), HA14-1 (25 μM), or DMSO vehicle, followed by oligomycin (oligo, 0.5 μg/ml), FCCP (3 μM), and antimycin A (AA, 1 μM) while oxygen consumption rate (OCR) was measured. Pyruvate (10 mM) was added in combination with FCCP to ensure that substrate supply was not rate-limiting for maximal OCR. Data are mean ± SD from 2 to 3 wells and representative of independent experiments performed with two different HAPI passages. […] Significance was assessed by two-sided, unpaired t-test. […]"}, "A549 cells [3]": {"test_system": "A549 cells", "assay": "Colony-forming assay with γ-radiation", "type": "cell-based, human", "settings": "1 μM and 2 μM, added 4 h before radiation", "method": "Cells were irradiated at room temperature with 0.5 Gy/min to the desired dose using a Gammacell 40 ^137Cs irradiator. For in vivo experiments, mice were treated using the Small Animal Radiation Research Platform (Wong et al, [2008]). The tumors were irradiated with a circular beam of 1 cm diameter.\nCells were counted, plated, and allowed to attach overnight. RK-33 at specified doses was added 4 h before radiation was delivered. Colonies were stained and counted approximately 10 days after irradiation. Surviving fraction was calculated by dividing the number of colonies formed by the number of cells plated times the plating efficiency. Curves were fitted with a quadratic polynomial equation. P-values were determined by the extra sum of square F-test."}, "[4]": {"test_system": "TCF4 activity in A549 cells", "assay": "TCF reporter assay (TOP/FOP-FLASH)", "type": "cell-based, human", "settings": "0, 1, 2, and 3 μM; wild-type and β-catenin-overexpressing cells", "method": "Transcriptional activity of TCF4 was assayed using the dual luciferase assay (Promega, Madison, WI, USA) according to the manufacturer's instructions. Briefly, 1.5 × 10^4 A549 or H1299 cells were transfected with 500 ng of TOP-FLASH and control FOP-FLASH constructs along with 50 ng of phRL Renilla constructs as transfection controls as well as with 500 ng β-catenin constructs when indicated. Cells were cultured for 24 h and then lysed in passive lysis buffer. Luminescence was detected using a luminometer (Berthold Sirius, Oak Ridge, TN, USA). Relative TCF4 promoter activity was calculated by dividing firefly luminescence by Renilla luminescence, and then normalized TOP-FLASH was divided by normalized FOP-FLASH, which was finally normalized to vector or DMSO control cells. All experiments were repeated three times, and differences were assessed by the paired t-test."}, "DDX5": {"target": "T1, DDX5 (Homo sapiens, UniProt P17844)", "T1 construct": "Two plates of 70% confluent cells were lysed with IP lysis buffer; endogenous in cells", "T1 sequence (P17844 whole entry)": "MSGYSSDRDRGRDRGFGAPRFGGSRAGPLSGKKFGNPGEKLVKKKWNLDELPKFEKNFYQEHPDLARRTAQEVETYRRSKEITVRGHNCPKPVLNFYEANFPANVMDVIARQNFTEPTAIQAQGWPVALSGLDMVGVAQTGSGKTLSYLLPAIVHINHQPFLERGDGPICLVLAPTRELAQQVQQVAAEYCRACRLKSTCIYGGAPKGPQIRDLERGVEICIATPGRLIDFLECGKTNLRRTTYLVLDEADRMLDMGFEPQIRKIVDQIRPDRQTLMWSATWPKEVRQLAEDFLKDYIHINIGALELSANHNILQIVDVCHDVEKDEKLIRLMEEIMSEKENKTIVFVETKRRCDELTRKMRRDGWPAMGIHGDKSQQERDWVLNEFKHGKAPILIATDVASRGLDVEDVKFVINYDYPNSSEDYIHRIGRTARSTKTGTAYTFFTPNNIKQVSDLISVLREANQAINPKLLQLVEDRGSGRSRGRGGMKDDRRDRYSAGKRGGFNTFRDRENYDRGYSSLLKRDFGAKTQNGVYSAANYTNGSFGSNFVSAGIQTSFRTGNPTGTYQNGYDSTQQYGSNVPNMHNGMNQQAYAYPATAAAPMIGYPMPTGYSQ", "assay": "Biotin bead pull-down assay with biotinylated RK-33, immunoblot", "type": "binding", "settings": "biotinylated RK-33 molecules, 10 μM", "method": "Mean from 3 replicates with SD. • J, K Colony-forming assay of A549 and H3255 cells treated with RK-33 and with various doses of radiation 4 h later. Curves were fitted with a quadratic polynomial equation. Mean from 2 replicates with SD. P-values were determined by the extra sum of squares F-test. Source data are available online for this figure.\nTwo plates of 70% confluent cells were lysed with IP lysis buffer (Tris–HCl (pH 7.4) 25 mM, NaCl 150 mM, EDTA 1 mM, NP-40 1%, glycerol 5%, protease inhibitor). […] Streptavidin beads were added and incubated for 1 h at room temperature. The biotin-bead–RK-33 complex was extracted with a magnetic stand and washed seven times with PBS. Proteins were analyzed by immunoblot."}, "[5]": {"settings": "10 μM, especially evident 2 h after treatment"}},
  "data": [
    {"substance": "diimidazo[4,5-d:4′,5′-f]-[1,3]diazepine [RK-33]", "values": [
      {"measurement": "DNA repair proteins ATR and XRCC4", "setting": "H1299 cells; 6 μM for 4 h, then 5 Gy", "result": "decrease of ATR but not XRCC4"},
      {"measurement": "phosphorylated ERK2 and ERK1", "setting": "H1299 cells; 7.5 μM or 10 μM, 24 h", "result": "reduction of phosphorylated ERK2 and ERK1"},
      {"measurement": "cyclin D1 protein", "setting": "H1299 cells; [5]", "result": "substantial reduction of cyclin D1"},
      {"measurement": "DNA repair proteins ATR and XRCC4", "setting": "A549 cells [1]; 6 μM for 4 h, then 5 Gy", "result": "decrease of ATR but not XRCC4"},
      {"measurement": "phosphorylated ERK2 and ERK1", "setting": "A549 cells [1]; 7.5 μM or 10 μM, 24 h", "result": "reduction of phosphorylated ERK2 and ERK1"},
      {"measurement": "caspase cleavage", "setting": "A549 cells [1]; 10 μM", "result": "cleavage of caspases 7 and 9"},
      {"measurement": "cyclin D1 protein", "setting": "A549 cells [1]; [5]", "result": "substantial reduction of cyclin D1"},
      {"measurement": "accumulation in organs (biodistribution)", "setting": "[2]", "result": "able to accumulate at therapeutic dose in various organs"},
      {"measurement": "sensitization to γ-radiation", "setting": "A549 cells [3]", "result": "sensitized A549 cells to γ-radiation"},
      {"measurement": "TCF activity", "setting": "[4]", "result": "reduced TCF activity significantly"},
      {"measurement": "binding to DDX5 in pull-down", "setting": "DDX5", "result": "not to the closely related proteins DDX5 and DDX17"}
    ]}
  ]
}
